The text below walks through data of the supplement of paper PMC11208160.

A short description of the data set: recombinant barcode read abundance after kanamycin selection (control-corrected) (log10(CPM+1)); higher = more efficient recombination; sequences stand for … in AGTGCAGAGAAAATCGGCCAGTTTTCTCTGCCTGCAGTCCGCATGCCGT…ATTTATGCAGCGGACTGCCTTTCTCCCAAAGTGATAAACCGGACAGTATCATGGACCGGTTTTCCCGGTAATCCGTATTTGCAAGGTTGGTTTCACT; site = the 11-nt target. Summed up: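 Targets were screened in pooled form in E. coli against IS621 bridge RNA target-binding loops. Recombination efficiency is based on barcode counts at recombinant junctions in counts per million, averaged and corrected for the control. Numbers are shown as log10(CPM+1), with duplicate plates on chloramphenicol/ampicillin LB agar (control) or chloramphenicol/ampicillin/kanamycin with 0.1 mM IPTG.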

“TTATAAAATTGGGTTCTAACCTGTTGCCTAT [TTATAAACTAG_LTGcore_AT_RTGcore_AT] (site TTATAAACTAG) (LTG core: AT, RTG core: AT)”: the “recombinant barcode read abundance (log10)” value worked out at 0.124. For “TTATAAACCTGGGTTCTAACCTGTTGCCTGG [TTATAAACTAG_LTGcore_CC_RTGcore_CC] (site TTATAAACTAG) (LTG core: CC, RTG core: CC)”, the “recombinant barcode read abundance (log10)” value was 0.0325. With “TTATAAACTTGGGTTCTAACCTGTTGCCTAC [TTATAAACTAG_LTGcore_CT_RTGcore_GT] (site TTATAAACTAG) (LTG core: CT, RTG core: GT)” the figure was 0.944. The result for “TTATAAACTTGGGTTCTAACCTGTTGCCTAT [TTATAAACTAG_LTGcore_CT_RTGcore_AT] (site TTATAAACTAG) (LTG core: CT, RTG core: AT)” reads 0.302.

With “TTATAAACTTGGGTTCTAACCTGTTGCCTGG [TTATAAACTAG_LTGcore_CT_RTGcore_CC] (site TTATAAACTAG) (LTG core: CT, RTG core: CC)”, the “recombinant barcode read abundance (log10)” value worked out at 0.574. “TTATAAACTTGGGTTCTAACCTGTTGCCTTT [TTATAAACTAG_LTGcore_CT_RTGcore_AA] (site TTATAAACTAG) (LTG core: CT, RTG core: AA)”: the “recombinant barcode read abundance (log10)” value was 0.0604. With “TTATAAAGTTGGGTTCTAACCTGTTGCCTAG [TTATAAACTAG_LTGcore_GT_RTGcore_CT] (site TTATAAACTAG) (LTG core: GT, RTG core: CT)” the figure was 0.109; with “TTATAAATATGGGTTCTAACCTGTTGCCTTA [TTATAAACTAG_LTGcore_TA_RTGcore_TA] (site TTATAAACTAG) (LTG core: TA, RTG core: TA)”, 0.855; with “TTATAAATGTGGGTTCTAACCTGTTGCCTAG [TTATAAACTAG_LTGcore_TG_RTGcore_CT] (site TTATAAACTAG) (LTG core: TG, RTG core: CT)”, 0.083.

As to “TTATAAATTTGGGTTCTAACCTGTTGCCTAG [TTATAAACTAG_LTGcore_TT_RTGcore_CT] (site TTATAAACTAG) (LTG core: TT, RTG core: CT)”, the “recombinant barcode read abundance (log10)” value is 0.0473.
